Assay results taken from BindingDB's records for doi:10.1073/pnas.182234399 (Case Western Reserve University, 2002).

Legend:
[1] = target: Metabotropic glutamate receptor 2 (Homo sapiens, UniProt Q14416)
D(2) dopamine receptor = D(2) dopamine receptor (Homo sapiens, UniProt P14416)
[2] = target: Muscarinic acetylcholine receptor M1 (Homo sapiens, UniProt P11229)
[3] = target: 5-hydroxytryptamine receptor 3A (Homo sapiens, UniProt P46098)
[4] = target: Metabotropic glutamate receptor 4 (Homo sapiens, UniProt Q14833)
Sequence of Metabotropic glutamate receptor 4 (Q14833 whole entry): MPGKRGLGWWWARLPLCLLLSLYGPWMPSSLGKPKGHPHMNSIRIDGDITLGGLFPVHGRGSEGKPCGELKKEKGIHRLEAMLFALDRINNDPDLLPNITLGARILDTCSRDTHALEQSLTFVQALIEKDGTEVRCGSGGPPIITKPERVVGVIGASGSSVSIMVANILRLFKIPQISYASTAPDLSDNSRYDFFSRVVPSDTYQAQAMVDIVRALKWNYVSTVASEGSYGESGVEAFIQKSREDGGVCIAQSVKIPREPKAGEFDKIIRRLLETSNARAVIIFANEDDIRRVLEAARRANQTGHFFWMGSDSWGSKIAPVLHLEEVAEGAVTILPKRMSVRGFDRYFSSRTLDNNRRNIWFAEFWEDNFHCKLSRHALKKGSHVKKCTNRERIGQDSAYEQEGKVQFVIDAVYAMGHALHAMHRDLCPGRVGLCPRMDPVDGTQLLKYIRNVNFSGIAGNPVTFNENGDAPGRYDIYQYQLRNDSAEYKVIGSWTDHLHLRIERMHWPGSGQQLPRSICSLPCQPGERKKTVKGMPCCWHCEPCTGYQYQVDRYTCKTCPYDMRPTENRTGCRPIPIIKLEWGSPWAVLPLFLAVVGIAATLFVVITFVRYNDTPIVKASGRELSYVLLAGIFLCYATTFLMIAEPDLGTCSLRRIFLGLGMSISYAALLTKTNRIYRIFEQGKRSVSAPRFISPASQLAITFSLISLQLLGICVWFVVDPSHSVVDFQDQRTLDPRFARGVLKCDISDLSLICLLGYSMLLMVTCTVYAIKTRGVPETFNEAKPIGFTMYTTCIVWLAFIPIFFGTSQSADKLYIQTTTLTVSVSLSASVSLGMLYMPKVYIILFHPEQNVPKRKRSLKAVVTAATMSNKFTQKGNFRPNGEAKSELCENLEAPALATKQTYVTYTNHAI

[5] = target: Metabotropic glutamate receptor 5 (Homo sapiens, UniProt P41594)
[6] = target: Neuronal acetylcholine receptor subunit alpha-2 (Homo sapiens, UniProt Q15822)
D(4) dopamine receptor = D(4) dopamine receptor (Rattus norvegicus, UniProt P30729)
D(1A) dopamine receptor = D(1A) dopamine receptor (Homo sapiens, UniProt P21728)
[7] = target: Beta-1 adrenergic receptor (Rattus norvegicus, UniProt P18090)
[8] = target: Metabotropic glutamate receptor 1 (Homo sapiens, UniProt Q13255)
[9] = target: Muscarinic acetylcholine receptor M5 (Homo sapiens, UniProt P08912)
D(3) dopamine receptor = D(3) dopamine receptor (Homo sapiens, UniProt P35462)
[10] = target: 5-hydroxytryptamine receptor 2A (Rattus norvegicus, UniProt P14842)
Sequence of 5-hydroxytryptamine receptor 2A (P14842 whole entry): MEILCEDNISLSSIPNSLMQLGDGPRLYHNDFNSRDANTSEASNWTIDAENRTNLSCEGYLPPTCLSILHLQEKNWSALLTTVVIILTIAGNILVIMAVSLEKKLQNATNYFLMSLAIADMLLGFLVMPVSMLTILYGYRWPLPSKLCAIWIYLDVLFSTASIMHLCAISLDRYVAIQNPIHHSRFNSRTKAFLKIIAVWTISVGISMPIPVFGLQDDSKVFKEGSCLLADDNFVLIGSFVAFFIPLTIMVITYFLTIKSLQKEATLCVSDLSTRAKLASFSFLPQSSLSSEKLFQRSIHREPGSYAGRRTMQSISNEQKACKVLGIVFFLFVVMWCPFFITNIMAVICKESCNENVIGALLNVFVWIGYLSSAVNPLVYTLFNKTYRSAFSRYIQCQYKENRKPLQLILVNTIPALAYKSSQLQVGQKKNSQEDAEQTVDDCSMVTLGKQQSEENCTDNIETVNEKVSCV

[11] = target: 5-hydroxytryptamine receptor 7 (Homo sapiens, UniProt P34969)
[12] = target: 5-hydroxytryptamine receptor 6 (Homo sapiens, UniProt P50406)
Vasopressin V2 receptor = Vasopressin V2 receptor (Homo sapiens, UniProt P30518)
Sequence of Vasopressin V2 receptor (P30518 whole entry): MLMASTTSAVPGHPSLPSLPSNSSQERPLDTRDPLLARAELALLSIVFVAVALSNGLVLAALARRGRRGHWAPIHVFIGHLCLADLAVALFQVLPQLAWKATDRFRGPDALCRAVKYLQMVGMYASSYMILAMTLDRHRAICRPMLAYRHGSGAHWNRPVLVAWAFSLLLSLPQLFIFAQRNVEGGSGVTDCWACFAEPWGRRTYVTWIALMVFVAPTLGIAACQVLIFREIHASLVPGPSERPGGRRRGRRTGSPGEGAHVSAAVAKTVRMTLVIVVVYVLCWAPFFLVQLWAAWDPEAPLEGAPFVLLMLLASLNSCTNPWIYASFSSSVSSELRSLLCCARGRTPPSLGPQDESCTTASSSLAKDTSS

[13] = target: Glutamate receptor ionotropic, NMDA 1 (Rattus norvegicus, UniProt P35439)
[14] = target: 5-hydroxytryptamine receptor 2C (Rattus norvegicus, UniProt P08909)
[15] = target: Beta-2 adrenergic receptor (Rattus norvegicus, UniProt P10608)
[16] = target: Neuronal acetylcholine receptor subunit alpha-3 (Homo sapiens, UniProt P32297)
Sequence of Neuronal acetylcholine receptor subunit alpha-3 (P32297 whole entry): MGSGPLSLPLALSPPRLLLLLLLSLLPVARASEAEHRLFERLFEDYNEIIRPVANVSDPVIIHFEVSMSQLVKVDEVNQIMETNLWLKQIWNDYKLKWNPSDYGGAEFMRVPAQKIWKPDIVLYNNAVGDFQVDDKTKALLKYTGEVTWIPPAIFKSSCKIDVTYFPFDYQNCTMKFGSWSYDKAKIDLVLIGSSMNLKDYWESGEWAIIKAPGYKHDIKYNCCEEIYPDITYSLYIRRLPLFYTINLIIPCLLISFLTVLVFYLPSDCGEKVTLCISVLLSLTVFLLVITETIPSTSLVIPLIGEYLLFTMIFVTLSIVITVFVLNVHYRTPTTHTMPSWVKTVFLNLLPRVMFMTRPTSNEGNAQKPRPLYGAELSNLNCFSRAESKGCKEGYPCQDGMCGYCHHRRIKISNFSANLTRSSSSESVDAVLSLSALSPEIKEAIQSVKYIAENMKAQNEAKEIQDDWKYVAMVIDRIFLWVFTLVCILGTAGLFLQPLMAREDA

[17] = target: 5-hydroxytryptamine receptor 1B (Homo sapiens, UniProt P28222)
[18] = target: Metabotropic glutamate receptor 6 (Homo sapiens, UniProt O15303)
[19] = target: Muscarinic acetylcholine receptor M4 (Homo sapiens, UniProt P08173)
Vasopressin V1b receptor = Vasopressin V1b receptor (Homo sapiens, UniProt P47901)
Sequence of Vasopressin V1b receptor (P47901 whole entry): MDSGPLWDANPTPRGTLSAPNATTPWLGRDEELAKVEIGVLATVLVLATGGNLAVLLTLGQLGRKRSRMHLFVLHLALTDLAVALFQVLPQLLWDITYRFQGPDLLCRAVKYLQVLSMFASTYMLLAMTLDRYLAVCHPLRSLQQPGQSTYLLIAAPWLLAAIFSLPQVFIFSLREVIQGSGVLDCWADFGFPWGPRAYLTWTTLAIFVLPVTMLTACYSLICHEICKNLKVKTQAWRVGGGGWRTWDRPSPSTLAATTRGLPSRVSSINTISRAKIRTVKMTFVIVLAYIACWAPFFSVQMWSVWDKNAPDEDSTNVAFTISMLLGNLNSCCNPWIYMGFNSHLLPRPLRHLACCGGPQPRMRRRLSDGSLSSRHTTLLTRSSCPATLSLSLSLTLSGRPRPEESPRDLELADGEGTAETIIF

[20] = target: Metabotropic glutamate receptor 8 (Homo sapiens, UniProt O00222)
Sequence of Metabotropic glutamate receptor 8 (O00222 whole entry): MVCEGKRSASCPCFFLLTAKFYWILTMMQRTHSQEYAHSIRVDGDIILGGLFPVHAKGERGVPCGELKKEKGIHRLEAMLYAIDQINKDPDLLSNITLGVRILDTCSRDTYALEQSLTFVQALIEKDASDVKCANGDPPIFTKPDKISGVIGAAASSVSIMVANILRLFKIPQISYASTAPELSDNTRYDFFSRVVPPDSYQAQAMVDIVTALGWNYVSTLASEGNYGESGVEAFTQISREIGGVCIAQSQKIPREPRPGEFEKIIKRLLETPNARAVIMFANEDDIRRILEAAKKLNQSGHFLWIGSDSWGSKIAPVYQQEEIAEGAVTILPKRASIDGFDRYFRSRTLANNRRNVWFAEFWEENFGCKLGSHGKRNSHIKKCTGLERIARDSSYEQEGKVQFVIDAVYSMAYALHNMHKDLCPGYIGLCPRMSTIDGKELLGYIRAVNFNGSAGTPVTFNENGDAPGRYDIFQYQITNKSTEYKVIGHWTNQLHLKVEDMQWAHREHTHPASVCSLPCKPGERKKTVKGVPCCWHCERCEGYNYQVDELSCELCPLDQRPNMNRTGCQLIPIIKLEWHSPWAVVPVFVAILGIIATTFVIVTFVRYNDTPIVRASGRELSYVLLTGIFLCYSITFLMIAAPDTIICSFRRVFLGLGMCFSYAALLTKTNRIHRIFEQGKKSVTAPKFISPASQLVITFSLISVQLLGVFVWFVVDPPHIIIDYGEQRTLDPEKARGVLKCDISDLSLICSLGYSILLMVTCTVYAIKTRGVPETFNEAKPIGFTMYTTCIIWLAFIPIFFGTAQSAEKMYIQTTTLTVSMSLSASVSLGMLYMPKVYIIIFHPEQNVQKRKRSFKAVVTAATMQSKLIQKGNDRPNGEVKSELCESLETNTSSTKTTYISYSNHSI

[21] = target: 5-hydroxytryptamine receptor 2B (Homo sapiens, UniProt P41595)
Sequence of 5-hydroxytryptamine receptor 2B (P41595 whole entry): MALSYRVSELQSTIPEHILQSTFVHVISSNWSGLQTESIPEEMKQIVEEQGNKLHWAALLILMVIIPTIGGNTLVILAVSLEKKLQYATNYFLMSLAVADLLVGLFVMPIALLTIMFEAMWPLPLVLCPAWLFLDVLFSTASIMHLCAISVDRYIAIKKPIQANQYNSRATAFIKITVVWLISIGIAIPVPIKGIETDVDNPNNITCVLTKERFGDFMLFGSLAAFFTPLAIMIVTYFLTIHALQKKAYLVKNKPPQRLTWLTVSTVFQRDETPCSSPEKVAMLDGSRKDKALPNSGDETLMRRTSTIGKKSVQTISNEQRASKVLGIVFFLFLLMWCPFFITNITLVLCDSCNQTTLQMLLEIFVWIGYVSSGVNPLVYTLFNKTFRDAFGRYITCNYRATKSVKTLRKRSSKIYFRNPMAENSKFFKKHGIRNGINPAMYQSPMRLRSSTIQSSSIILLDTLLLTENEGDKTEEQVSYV

D(1B) dopamine receptor = D(1B) dopamine receptor (Homo sapiens, UniProt P21918)
[22] = target: Alpha-1A adrenergic receptor (Homo sapiens, UniProt P35348)
Sequence of Alpha-1A adrenergic receptor (P35348 whole entry): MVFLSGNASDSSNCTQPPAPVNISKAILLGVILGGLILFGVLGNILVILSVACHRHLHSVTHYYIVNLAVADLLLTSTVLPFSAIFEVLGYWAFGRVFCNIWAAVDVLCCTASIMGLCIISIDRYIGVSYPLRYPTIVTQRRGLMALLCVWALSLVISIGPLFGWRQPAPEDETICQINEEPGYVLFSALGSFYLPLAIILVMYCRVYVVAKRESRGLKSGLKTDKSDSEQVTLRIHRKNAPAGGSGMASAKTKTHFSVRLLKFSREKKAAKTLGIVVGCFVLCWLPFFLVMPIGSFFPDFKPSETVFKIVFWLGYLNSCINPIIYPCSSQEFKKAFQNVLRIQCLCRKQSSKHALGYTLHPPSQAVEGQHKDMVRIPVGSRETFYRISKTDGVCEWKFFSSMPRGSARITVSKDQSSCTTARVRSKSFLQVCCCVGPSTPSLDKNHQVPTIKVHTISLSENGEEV

[23] = target: 5-hydroxytryptamine receptor 1D (Homo sapiens, UniProt P28221)
[24] = target: Muscarinic acetylcholine receptor M3 (Homo sapiens, UniProt P20309)
[25] = target: Neuronal acetylcholine receptor subunit alpha-4 (Rattus norvegicus, UniProt P09483)
[26] = target: Muscarinic acetylcholine receptor M2 (Homo sapiens, UniProt P08172)
[27] = target: Gamma-aminobutyric acid receptor subunit alpha-1 (Rattus norvegicus, UniProt P62813)
[28] = target: Neuronal acetylcholine receptor subunit alpha-4 (Homo sapiens, UniProt P43681)
[29] = target: 5-hydroxytryptamine receptor 1A (Homo sapiens, UniProt P08908)
[30] = target: Sodium-dependent dopamine transporter (Bos taurus, UniProt P27922)
Histamine H1 receptor = Histamine H1 receptor (Homo sapiens, UniProt P35367)
[31] = target: 5-hydroxytryptamine receptor 5A (Homo sapiens, UniProt P47898)
[32] = target: 5-hydroxytryptamine receptor 1E (Homo sapiens, UniProt P28566)
Sequence of 5-hydroxytryptamine receptor 1E (P28566 whole entry): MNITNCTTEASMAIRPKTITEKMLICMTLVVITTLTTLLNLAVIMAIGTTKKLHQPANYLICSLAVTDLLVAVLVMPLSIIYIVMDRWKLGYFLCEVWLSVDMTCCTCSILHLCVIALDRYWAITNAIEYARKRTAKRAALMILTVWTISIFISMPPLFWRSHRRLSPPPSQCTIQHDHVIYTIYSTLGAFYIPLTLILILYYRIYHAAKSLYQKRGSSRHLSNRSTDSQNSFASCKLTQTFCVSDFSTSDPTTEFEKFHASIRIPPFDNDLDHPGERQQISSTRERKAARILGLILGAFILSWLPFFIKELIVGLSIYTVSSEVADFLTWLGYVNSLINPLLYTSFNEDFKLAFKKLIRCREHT

Measured: Ki

COC(=O)[C@@H]1C[C@H](OC(C)=O)C(=O)[C@H]2[C@@]1(C)CC[C@H]1C(=O)O[C@H](c3ccoc3)C[C@]21C [2S,4aR,6a(R,7R,9S,10aS,10bR)-9-(acetyloxy)-2-(furan-3-yl)dodecahydro-6a,10b-dimethyl-4,10-dioxo-2H-naphtho[2,1-c]pyran-7-carboxylic acid methyl ester]
> 10 µM: all assays above
